Laboratory results as given in US11013745B2, “Triazolopyrimidine, triazolopyridine compounds, and the composition thereof for treating PRC2-mediated diseases” (SHANGHAI INSTITUTE OF MATERIA MEDICA, CHINESE ACADEMY OF …, priority 2017, dated 2021).

What was measured:
[1] = test system: Pfeiffer cells; experiment: Growth inhibition of Pfeiffer cells in a long term (14 days), CellTiter-Glo; type: cell-based, Human; conditions: Homo sapiens, 336 h, 14 days, read-out: Pfeiffer (14 days) IC50
How it was run: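 Pfeiffer DLBCL cells in RPMI 1640 with 10% FBS were treated for 14 days with a 9-point, three-fold compound series (final 0.003-20 μM or 0.3-2000 nM, 0.2% DMSO). Medium and compound were refreshed with cell dilution on days 4, 7 and 11. Viability was read by CellTiter-Glo luminescence, and IC50 values were calculated.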

[2] = test system: Pfeiffer cells; experiment: Pfeiffer cell growth inhibition in a long term (11 days), CellTiter-Glo; type: cell-based, Human; conditions: Homo sapiens, 264 h, 11 days, read-out: Experiment on Pfeiffer cell growth inhibition in a long term (11 days IC50)
How it was run: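 Exponentially growing cells seeded at 1*10E5 cells/mL and treated the same day with a concentration range. Media and compound were refreshed at days 4 and 7. Viability was read by CellTiter-Glo after 11 days and GI50 values were derived.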

[3] = Liver microsomal stability (human); type: in vitro ADME
How it was run: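 Human, mouse and rat liver microsomes were incubated with NADPH and MgCl2 in 0.1 M Tris pH 7.4, with compound at a 0.2 μM working solution. Remaining compound was quantified by LC/MS over the incubation time. The slope of log remaining versus time gave Clint, which was scaled to predicted Cl, Clhep and % MF.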

[4] = Oral pharmacokinetics in rats; type: in vivo; conditions: male, SD, plasma, rat, intragastric, 3 mg/kg
Protocol: 1. Healthy male SD rats were used as test animals, EED226, […]-07 (3 mg/kg) were administered intragastrically, and the drug concentrations in rat plasma were determined by LC/MS/MS method at different time points after drug administration. The pharmacokinetic behavior of the compounds of the present invention in rats was studied, and the pharmacokinetic properties were evaluated. 2. The test animals were healthy adult male SD rats, with 3 rats in each group, purchased from Shanghai Xipuer-Bikai Laboratory Animal Limited Company. 3. Drug preparation: Compounds EED226, […] were dissolved in DMSO/0.5% HPMC (5/95, v/v) for preparation. The compound SL-ZYE-07 was dissolved in 0.5% HPMC (containing 0.5% Tween 80), vortexed, and sonicated to disperse the solid matter uniformly to obtain a pale white suspension. 4, Operation: EED226, […]-07 were administered to rats by intragastric administration (3 mg/kg), 45 μL of blood was taken through the femoral vein at 0.25, 0.5, 1, 2, 4, 8, 24 hour after administration, and centrifuged in a heparinized centrifuge tube for 5 min, and the plasma samples were separated for analysis. The contents of test compounds in rat plasma after intragastric administration of different compounds were determined by Liquid chromatography-mass spectrometry (LC-MS/MS).

[5] = test system: Karpas-422 cells; experiment: Growth inhibition of Karpas-422 cells in a long term (11 days), CellTiter-Glo; type: cell-based, Human; conditions: Homo sapiens, 264 h; Karpas-422, 11 days; read-out: Karpas-422 (11 days) IC50

IC50 [1]: 1 nM | IC50 [2]: 3.2 nM | Clearance rate in vivo Clint In Vivo Extpl ([3]; human liver microsomes): 1732 mL/min | Intrinsic clearance rate in vivo Clint In Vitro ([3]; human liver microsomes): 22.6 mL/min/gprot | Liver clearance rate Clint Hep In Vivo Extpl ([3]; human liver microsomes): 804 mL/min | half-life ([3]; human, liver microsomes, pH 7.4, human liver microsomes, read-out: Half life T-half): 1.55 h | bioavailability ([3]; human, liver microsomes, pH 7.4, human liver microsomes, read-out: Metabolic bioavailability MF %): 46.4% | AUC(0-t) [4]: 529 ± 150 ng·h/mL | AUC(0-inf) ([4]; extrapolated to infinity, read-out: AUCINF_obs): 539 ± 150 ng·h/mL | MRT inf ([4]; read-out: Average residence time MRTINF_obs): 2.06 ± 0.484 h | half-life ([4]; read-out: Half life T1/2 (converted)): 1.37 ± 0.212 h | Cmax ([4]; read-out: Peak concentration Cmax): 376 ± 273 ng/mL | IC50 [5]: 13 nM
Structure (SMILES): CS(=O)(=O)N1CC=C(c2cnc(NCc3c(F)ccc4c3CCO4)n3cnnc23)CC1 [E-Y13]
